Experimental data published in patent US10913771B2, “Peptide for preventing or treating inflammatory diseases and use thereof” (KINE SCIENCES Co., Ltd., priority 2016, dated 2021).
“And” between values parts separate entries of the source, which are not always exact repeats. Equal entries are not always repeated. Ends that are not written are not given here.

Assays:
[1] = system: collagen-induced arthritis (CIA) mouse model; assay: Arthritis progression index in collagen-induced arthritis mouse model; format: in vivo, DBA/1J mouse
Procedure: In Example 2, using a collagen-induced arthritis mouse model in the following document, a therapeutic effect of a PSP dimer or trimer for a representative inflammatory disease, rheumatoid arthritis was confirmed (Nat Protoc. 2007; 2(5):1269-75.).
A collagen-induced arthritis (CIA) mouse model was prepared as follows, as an autoimmune disease-based arthritis model with characteristics similar to human rheumatoid arthritis.
First, a bovine type II collagen (Chondrex Corporation, USA) and a Freund's complete adjuvant (Chondrex Corporation, USA) were mixed at a ratio of 1:1 and emulsified, and then 50 μl of the emulsified collagen solution was injected intradermally into the tail of a 6-week-old DBA/1J mouse to induce primary immunization. At two weeks after the primary immunization, the bovine type II collagen and the Freund's complete adjuvant were mixed at a ratio of 1:1 and emulsified, and then 50 μl of the emulsified collagen solution was injected intradermally into the tail of the mouse again to induce secondary immunization (boosting). After the secondary immunization, the peptide of the present invention (the PSP dimer (1 μmole) or the PSP trimer (1 μmole)) was administered intraperitoneally three times a week from the next day, and as a comparative experimental group, a PSP monomer-treated group and as a control (Vehicle control), a PBS-treated group were used, respectively. The preparation process of the collagen-induced arthritis mouse model and the administration time of the peptide were schematically illustrated in FIG. 1.
In order to investigate the development of arthritis progression according to the peptide treatment of the present invention, the deepening degree of arthritis with time was measured by evaluating an arthritis progression index. Two observers who were unaware of the specific experimental conditions evaluated progression of arthritis three times a week. In this case, the arthritis progression index was evaluated by 0 to 4 scores per leg according to an arthritis progression evaluation standard by Rossoliniec and the like in Table 2 below to be represented by a total of 0 to 16 scores (a sum of four legs), and thereafter, two observers calculated an average value of the evaluated results to digitize the severity of arthritis.
Methotrexate (MTX), one of drugs which are used as arthritis therapeutic agents in a current clinical practice, had excellent anti-inflammatory and arthritis therapeutic effects as an immunodepressant, but may have side effects such as toxicity to normal cells, oral ulcer, alopecia, interstitial pneumonia, bone marrow suppression, and the like. As a result, the methotrexate is known as a drug that needs to pay close attention after medication with sufficient medication counseling. In Example 2, the arthritis therapeutic effect with the peptide of the present invention and methotrexate (1 mg/kg) was evaluated and compared with the arthritic progression index by using the same method as Example 2-2.

[2] = Evaluation of toxicity: mortality and change in body weight after intraperitoneal administration; format: in vivo; settings: individual mouse
Procedure: In Example 3, in order to confirm the toxicity of the peptide of the present invention, the PSP dimer or the PSP trimer was intraperitoneally administered to mouse at various concentrations (0.1 μmole, 1 μmole, and 10 μmole), and then the mortality and a change in body weight of each mouse were measured. On the other hand, as a control, a non-administration group (Normal) and a PBS-treated group (PBS) were used.

CN(Cc1cnc2nc(N)nc(N)c2n1)c1ccc(C(=O)N[C@@H](CCC(=O)O)C(=O)O)cc1 [MTX, methotrexate]
arthritis progression index ([1]; Table 6, day 14, comparison of PSP dimer with methotrexate (1 mg/kg), 0 to 16 scores): 0.0
arthritis progression index ([1]; Table 6, day 17, comparison with methotrexate (1 mg/kg)): 0.0
arthritis progression index ([1]; Table 6, day 20, comparison with methotrexate (1 mg/kg)): 0.0
arthritis progression index ([1]; Table 6, day 22, comparison with methotrexate (1 mg/kg)): 0.0
arthritis progression index ([1]; Table 6, day 25, comparison with methotrexate (1 mg/kg)): 0.0
arthritis progression index ([1]; Table 6, day 27, comparison with methotrexate (1 mg/kg)): 1.0
arthritis progression index ([1]; Table 6, day 29, comparison with methotrexate (1 mg/kg)): 0.8
arthritis progression index ([1]; Table 6, day 31, comparison with methotrexate (1 mg/kg)): 2.8
arthritis progression index ([1]; Table 6, day 35, comparison with methotrexate (1 mg/kg)): 3.2
arthritis progression index ([1]; Table 7, day 14, comparison of PSP trimer with methotrexate (1 mg/kg), 0 to 16 scores): 0.0
arthritis progression index ([1]; Table 7, day 17, comparison with methotrexate (1 mg/kg)): 0.0
arthritis progression index ([1]; Table 7, day 20, comparison with methotrexate (1 mg/kg)): 0.0
arthritis progression index ([1]; Table 7, day 22, comparison with methotrexate (1 mg/kg)): 0.0
arthritis progression index ([1]; Table 7, day 25, comparison with methotrexate (1 mg/kg)): 0.0
arthritis progression index ([1]; Table 7, day 27, comparison with methotrexate (1 mg/kg)): 1.0
arthritis progression index ([1]; Table 7, day 29, comparison with methotrexate (1 mg/kg)): 0.8
arthritis progression index ([1]; Table 7, day 31, comparison with methotrexate (1 mg/kg)): 2.8
arthritis progression index ([1]; Table 7, day 35, comparison with methotrexate (1 mg/kg)): 3.2

PSPPSP [PSP dimer, PSPPSP]
Body weight ([2]; PSP dimer 0.1 μmol intraperitoneal, day 15): 20.7 g and 20.2 g and 21.6 g and 21 g and 20.1 g and 20.9 g and 19.9 g
Body weight ([2]; PSP dimer 0.1 μmol intraperitoneal, day 18): 20.7 g and 21.1 g (2×) and 22.7 g and 22.4 g and 21.2 g and 21.8 g
Body weight ([2]; PSP dimer 0.1 μmol intraperitoneal, day 22): 23.3 g and 21.9 g and 23.5 g and 22.9 g and 21.4 g and 23.1 g and 22.3 g
Body weight ([2]; PSP dimer 0.1 μmol intraperitoneal, day 25): 22.7 g and 21.4 g and 22.1 g and 23 g and 21.1 g and 22.5 g and 21.7 g
Body weight ([2]; PSP dimer 0.1 μmol intraperitoneal, day 29): 23.2 g (2×) and 21.7 g (2×) and 22.7 g and 23.3 g and 19.5 g
Body weight ([2]; PSP dimer 0.1 μmol intraperitoneal, day 32): 23.5 g and 22.1 g and 23.3 g and 22.7 g and 19.3 g and 23.9 g and 21 g
Body weight ([2]; PSP dimer 0.1 μmol intraperitoneal, day 36): 23.7 g and 18.6 g (2×) and 22.4 g and 22.3 g and 24.2 g and 20.2 g
Body weight ([2]; PSP dimer 1 μmol intraperitoneal, day 18): 23.3 g and 20 g and 22.5 g and 22.1 g and 20.8 g and 21.8 g and 21.1 g
Body weight ([2]; PSP dimer 1 μmol intraperitoneal, day 22): 24.4 g and 20.7 g and 22.5 g (3×) and 23.2 g and 21.5 g
Body weight ([2]; PSP dimer 1 μmol intraperitoneal, day 25): 23.9 g and 19.6 g and 21.8 g and 22.9 g and 21.6 g and 22.3 g and 22.4 g
Body weight ([2]; PSP dimer 1 μmol intraperitoneal, day 29): 23.9 g and 20.1 g and 21.8 g and 23.4 g and 21.3 g and 22.7 g and 23.1 g
Body weight ([2]; PSP dimer 1 μmol intraperitoneal, day 36): 23 g (2×) and 20.7 g and 23.4 g and 21.4 g and 19.4 g and 24.5 g
Body weight ([2]; PSP dimer 10 μmol intraperitoneal, day 15): 19.5 g
Body weight ([2]; PSP dimer 10 μmol intraperitoneal, day 18): 20.8 g

PSPPSPPSP [PSP trimer, PSPPSPPSP]
Body weight ([2]; PSP trimer 0.1 μmol intraperitoneal, day 15): 20.75 g (2×) and 20.64 g and 21.54 g and 19.43 g and 22.27 g and 21.68 g
Body weight ([2]; PSP trimer 0.1 μmol intraperitoneal, day 17): 21 g and 20.6 g and 21.5 g and 19.1 g and 22.3 g and 21.3 g and 21.7 g
Body weight ([2]; PSP trimer 0.1 μmol intraperitoneal, day 20): 21.2 g and 21.3 g and 20.8 g and 19.6 g and 22.9 g and 21.9 g and 21.7 g
Body weight ([2]; PSP trimer 0.1 μmol intraperitoneal, day 24): 22.2 g and 21.7 g and 22.6 g and 19.9 g and 23.8 g and 22.8 g and 21.9 g
Body weight ([2]; PSP trimer 0.1 μmol intraperitoneal, day 27): 21.3 g and 21.4 g and 22.7 g and 19.5 g and 23.6 g and 22.2 g and 21.8 g
Body weight ([2]; PSP trimer 0.1 μmol intraperitoneal, day 31): 20.3 g and 21.3 g and 21 g (2×) and 18.6 g and 24.3 g and 23.3 g
Body weight ([2]; PSP trimer 0.1 μmol intraperitoneal, day 34): 19.7 g and 20.5 g and 19.8 g and 18.1 g and 24.1 g and 23 g and 21.3 g
Body weight ([2]; PSP trimer 1 μmol intraperitoneal, day 15): 20.76 g and 21.15 g (2×) and 21.62 g and 21.02 g and 20.4 g and 19.02 g
Body weight ([2]; PSP trimer 1 μmol intraperitoneal, day 17): 21.5 g (2×) and 21.1 g and 22.2 g and 21.7 g and 21.3 g and 19.1 g
Body weight ([2]; PSP trimer 1 μmol intraperitoneal, day 20): 22.3 g and 21.6 g and 22.9 g and 22.1 g and 21.8 g and 20.8 g and 19.2 g
Body weight ([2]; PSP trimer 1 μmol intraperitoneal, day 24): 23.2 g and 22.6 g and 23.8 g and 22.7 g (2×) and 21.3 g and 20.2 g
Body weight ([2]; PSP trimer 1 μmol intraperitoneal, day 27): 22.3 g and 22.4 g and 23.8 g and 22.8 g and 22.6 g and 21.5 g and 19.8 g
Body weight ([2]; PSP trimer 1 μmol intraperitoneal, day 31): 21.4 g (2×) and 22.7 g and 22.8 g and 22.5 g and 21.7 g and 19.9 g
Body weight ([2]; PSP trimer 1 μmol intraperitoneal, day 34): 20.1 g and 22.6 g and 21.1 g and 19.9 g and 20.7 g and 22 g and 19.3 g
Body weight ([2]; PSP trimer 10 μmol intraperitoneal, day 15): 21.9 g
Body weight ([2]; PSP trimer 10 μmol intraperitoneal, day 17): 21.2 g
